Data from patent US20190060298A1, “NEW DRUG FOR THE TREATMENT AND/OR PREVENTION OF DEPRESSIVE DISORDERS” (SORBONNE UNIVERSITE, priority 2013, published 2019).

How the values were obtained:
[1] = tested on: aconitase; assay: Aconitase activity in hippocampus; format: in vivo, Sprague-Dawley rats; details: V rats; 288 μmol/kg/day, 15 days from D11; D31
Experimental: Rats were killed by decapitation and their right hippocampi were rapidly removed and homogenized in ice-cold buffer (5 mM Tris-HCl pH 7.5, 210 mM mannitol, 70 mM sucrose, 1 mM EDTA and 2.3 mM sodium citrate). Homogenates were rapidly centrifuged (14,000×g, 10 min, 4° C.) and the pellets were immediately frozen in liquid nitrogen and stored at −80° C. Aconitase activity was measured spectrophotometrically (Gardner et al., 1994), by monitoring the linear absorbance change at 340 nm, at 25° C., in a 1.0-ml reaction mixture containing 50 mM Tris HCl (pH 7.5), 0.05% BSA, 2 mM sodium citrate, 2 mM MnCl2, 0.4 mM NADP+, 0.85 units of isocitrate dehydrogenase, and 10-20 μg of protein extract. The absorbance change associated with aconitase activity was linear with respect to time and protein concentration. One milliunit of aconitase activity was defined as the amount of enzyme catalyzing the formation of 1 nmol of D-isocitrate per min and per mg.
(§1) Tempol (4-hydroxy-2,2,6,6-tetramethylpiperidine 1-oxyl), which was administered at a dose of 288 μmol/kg/day [Sigma-Aldrich, St Louis, Mo., USA]), was dissolved in distilled water and delivered via ALZET osmotic mini-pumps (2002, Charles River Laboratories, France). […]

[2] = tested on: catalase; assay: Catalase activity in hippocampus; format: in vivo, Sprague-Dawley rats; details: 288 μmol/kg/day, 15 days from D11; D31
Experimental: The animals were decapitated and the left hippocampus was homogenized in ice-cold buffer (20 mM Hepes pH 7.2, 1 mM EGTA, 210 mM mannitol, 70 mM sucrose). Homogenates were centrifuged and the supernatants were retained for analysis. Catalase and total SOD activities were immediately determined with commercially available kits (Cayman Chemical, Ann Arbor, Mich., USA), in accordance with the manufacturer's instructions. SOD and catalase specific activities are expressed as units per mg of hippocampus and as nmoles of formaldehyde formed per minute per mg of hippocampal tissue, respectively.
(§2) Tempol (4-hydroxy-2,2,6,6-tetramethylpiperidine 1-oxyl), which was administered at a dose of 288 μmol/kg/day [Sigma-Aldrich, St Louis, Mo., USA]), was dissolved in distilled water and delivered via ALZET osmotic mini-pumps (2002, Charles River Laboratories, France). Tempol- or distilled water-filled pumps were implanted subcutaneously on the back of intruder rats under light anesthesia with isofluorane, 11 days after completion of the social-defeat procedure (D11), and were left in place for 15 days.

[3] = tested on: CA3 neurons; assay: Golgi staining, hippocampal CA3 neuron morphology; format: in vivo, Sprague-Dawley rats; details: 288 μmol/kg/day, 15 days
Experimental: At D11 and D31, unperfused brains were rapidly removed and processed with the FD Rapid Golgistain kit (FD NeuroTechnologies), as previously described by Blugeot et al. (2011). Histological quantification: for each rat, the total dendrite length of apical CA3 dendritric branches was measured for selected neurons with AxioVision 4.7 software and a Zeiss Imager M1 microscope. 3-5 hippocampal neurons per rat are selected for measurement by an investigator blind to the origin of the experimental animal. Dendritic tracing was quantified by Sholl analysis (Sholl, 1953). The number of intersections between the dendrites and the concentric circles was counted and plotted as a function of the distance from the soma. The density of dendritic spines was estimated by counting the number of apical dendritic spines in 3-4 segments of 15 μm located in the stratum radiatum, at 1000× resolution. Spine density was expressed as the number of spines per 15 μm length of apical dendrite.
as §2

[4] = tested on: Sprague-Dawley rats; assay: Depression-like profile after sensitization paradigm (CSD then CMS); format: in vivo; details: TEMPOL administrated before CMS
Experimental: Sprague-Dawley rats were subjected to chronic social defeat (CSD) and then, four weeks later, to three weeks of chronic mild stress (SSP rats). The chronic mild stress protocol (CMS) was performed as previously described (see Blugeot et al., 2011). The control rats were control intruders (not subjected to CSD) not exposed to the three weeks of CMS (C rats).
The CMS protocol is derived from that described by Willner et al. (1992). Briefly, various mild stresses were applied every day, over a period of three weeks. Briefly, from Monday to Friday, every morning, animals were placed in a small cage (10×16×15 cm) for 1 hour. In the afternoon, they were shaken for 10 min (Monday and Thursday), placed in a small cage containing water (2 cm high, Tuesday) or placed in another cage for 4 hours (Wednesday and Friday). Every night, the cage was inclined (45°, Tuesday and Thursday) or contained wet bedding (Wednesday and Friday). On Saturday and Sunday, the rats were subjected to a reversed dark/light cycle for 30 min, every three hours.
as §1

[5] = tested on: HPA axis; assay: Activity of the HPA (corticotropic) axis; format: in vivo, Sprague-Dawley rats; details: vulnerable animals vs vulnerable animals treated with vehicle
Experimental: as §2
When the rats were killed (at D57), blood from trunk vessels was collected into chilled tubes and corticosterone was quantified by RIA (ICN Biomedicals, Orsay, France), using [125I]corticosterone as a radiotracer (Andre et al., 2005). Adrenal glands were removed, dissected free of adhering fat, and weighed. Organ weights are expressed relative to body weights (mg gland/100 g body weight). Rats were decapitated at midday in a quiet separate room, one by one, with the bench cleaned between rats.

[6] = tested on: Nrf2-null mice; assay: Depression-like phenotype of Nrf2-null mice after CMS; format: in vivo; details: Nrf2-null mice after three weeks of CMS; Tempol 288 μmol/kg/day from one week before CMS to end
Experimental: Nrf2-null mice were backcrossed onto the C57BL/6 J background for seven generations using alternating male and female stock mice from the CNRS TAAM UPS44 (Orléans). The resulting wild-type (Nrf2+/+) and Nrf2−/− mice were genotyped and only male mice at 6 weeks old at the beginning of the experiments were used. The level of oxidative stress in mice was first evaluated through the measure of lipid peroxidation. Lipid peroxidation was assessed by measuring TBARS formation with a commercial assay kit (Cayman Chemical, Ann Arbor, Mich., USA), in accordance with the manufacturer's instructions. TBARS concentration was calculated from an MDA standard curve and normalized.
To examine the depression-like phenotype of Nrf2-null mice, the helplessness behaviour, anhedonia and HPA hyperactivity (corticosterone, and adrenal gland weight) were assessed before and after a chronic mild stress (CMS) protocol. The neuroanatomical morphology of hippocampus in mice was estimated using Golgi Staining procedure. Tempol (4-hydroxy-2,2,6,6-tetramethylpiperidine 1-oxyl, Sigma-Aldrich, St Louis, Mo., USA), which was administered at a dose of 288 μmol/kg/day (Wilcox, 2010), was dissolved in distilled water and delivered via ALZET osmotic mini-pumps (1004, Charles River Laboratories, France). […]

CC1(C)CC(O)CC(C)(C)N1[O] [TEMPOL, 4-hydroxy-2,2,6,6-tetramethylpiperidin-1-oxyl]
aconitase activity [1]: lack of aconitase activity dysfunction | catalase activity [2]: no effect | dendritic trees (total apical dendrite length of CA3 neurons) ([3]; NV and V animals, D31): fully restored | spine density (CA3 dendritic spines) ([3]; NV and V animals, D31): fully restored | total length of hippocampal neurons ([3]; non-vulnerable and control animals vs vehicle-treated): tends to increase | depression-like profile generated by the CMS [4]: abolished | adrenal gland weight [5]: prevented the increase | corticosterone levels [5]: prevented the increase of corticosterone levels | depression-like phenotype (helplessness behaviour, anhedonia, HPA hyperactivity) [6]: prevented
